Experimental data published in paper PMC8113149 (Bioorganic & medicinal chemistry letters, 2021).
Entries after “also recorded” stand apart in the source; their conditions may differ. Where two headings read alike, the source gives them in different places. Values belong to the molecule of their own block, whether it stands above or below them.

Columns and labels:
cellular microtubules [1] = details: read-out: Cellular microtubule depolymerization EC50; lead compounds; cited from earlier work
tubulin [2] = test: Inhibition of [3H]colchicine binding to tubulin
tubulin [3] = details: lead compounds, cited from earlier work
MDA-MB-435 = test: Antiproliferative effects in MDA-MB-435; format: cell-based, human; details: 5-methyl vs 5-desmethyl compound
cellular microtubules [4] = test: Cellular microtubule depolymerization; format: cell-based; details: 5-methyl vs 5-desmethyl compound
tubulin [5] = test: Inhibition of tubulin assembly; format: biochemical
[6] = tested on: MCF-7 TUBB3 (βIII-tubulin overexpressing) tumors; test: MCF-7 TUBB3 orthotopic xenograft; format: in vivo, mouse; details: athymic female mice; 9 at 30 mg/kg two times weekly, paclitaxel 10 mg/kg/week
NCI 60 cell line panel = test: NCI-60 panel, overall; format: cell-based; details: Homo sapiens, read-out: GI50 against most/many tumor cell lines
[7] = Animal weight and MTD in xenograft study

Structure (SMILES): COc1ccc(/C=C\c2cc(OC)c(OC)c(OC)c2)cc1O [CA-4, combretastatin A-4]
- EC50 (cellular microtubules [1]): 9.8 nM
- Inhibition of colchicine binding, % inhibition ± SD (tubulin [2]; 0.5 μM inhibitor): 84 ± 3%
- Inhibition of colchicine binding, % inhibition ± SD (tubulin [3]; 0.5 μM inhibitor): 84 ± 3%

Structure (SMILES): COc1ccc(Nc2nc(C)nc3cc[nH]c23)cc1 [Compound 1]
- EC50 (cellular microtubules [1]): > 10000 nM
- Inhibition of colchicine binding, % inhibition ± SD (tubulin [3]; 5 μM inhibitor): 0%

Structure (SMILES): COc1ccc(N(C)c2nc(C)nc3cc[nH]c23)cc1 [Compound 2]
- EC50 (cellular microtubules [1]): 1200 nM

Structure (SMILES): COc1ccc(N(C)c2nc(C)nc3ccn(C)c23)cc1 [Compound 3]
- EC50 (cellular microtubules [1]): 7.4 nM
- Fold more potent in antiproliferative effects than 5-desmethyl 2 (MDA-MB-435): 22 fold
- Fold more potent in cellular microtubule depolymerization than 5-desmethyl 2 (cellular microtubules [4]): 160 fold

Structure (SMILES): COc1ccc(N(C)c2nc(C)nc3c(Cc4ccccc4)cn(C)c23)cc1 [Compound 5]
- Fold more potent in inhibiting tubulin assembly than 5-desmethyl compound (tubulin [5]; 5 vs 4, 7 vs 6): 43 fold

Structure (SMILES): COc1ccc(N(C)c2nc(Cl)nc3cnn(C)c23)cc1 [Compound 9]
- Primary tumor growth / tumor volume [6]: decreased primary tumor growth
- GI50 (NCI 60 cell line panel): ≤ 10 nM
- Animal weight change ([7]; percent weight change at day 41 over starting weight): no significant weight loss

- Inhibition of [3H]colchicine binding, in words (tubulin [2]): completely inactive
- IC50 (tubulin [5]; read-out: Inhibition of tubulin assembly IC50 ± SD): > 20000 nM
Structure (SMILES): COc1ccc(Nc2nc(Cl)nc3cnn(C)c23)cc1 [Compound 10]
- Inhibition of tubulin assembly, in words (tubulin [5]): did not inhibit tubulin assembly; also recorded: no effect

- Inhibition of [3H]colchicine binding, in words (tubulin [2]): equipotent to 9
Structure (SMILES): CSc1ccc(N(C)c2nc(Cl)nc3cnn(C)c23)cc1 [Compound 15]

Structure (SMILES): CC(=O)O[C@H]1C(=O)[C@@]2(C)[C@H]([C@H](OC(=O)c3ccccc3)[C@]3(O)C[C@H](OC(=O)[C@H](O)[C@@H](NC(=O)c4ccccc4)c4ccccc4)C(C)=C1C3(C)C)[C@]1(OC(C)=O)CO[C@@H]1C[C@@H]2O [Paclitaxel, paclitaxel]
- Maximally tolerated dose (MTD) ([7]; mice): 10 mg/kg/week
